SMILES strings stand for the structures.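 These data come from cells grown in 96-well plates and exposed to compound for 48 hours at five concentrations. GI50 marks 50% less growth. The concentration for full growth arrest is given as TGI.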

Some test systems named below: SF-539 CNS; OVCAR-4 ovarian; SNB-75 CNS; DLD-1 colon; DMS 114 small cell lung; DMS 273 small cell lung; KM20L2 colon; LXFL 529 NSCLC; M19-MEL melanoma; SNB-78 CNS.
Test in all cases: NCI anticancer screen, dose series, 48 h

As to `CN1CCc2c(sc3nc(Nc4ccccc4)n(N)c(=O)c23)C1`, in the experiment with SF-539 CNS, the TGI was over 100 µM.

For the compound `COCCc1c(C)c(C#N)c2n(C)c3ccccc3n2c1=O`, the TGI with OVCAR-4 ovarian, with SF-539 CNS and in the experiment with SNB-75 CNS was over 10 µM throughout.

With `CCOC(=O)/C(C(=S)NC)=C(/N)N1CCCC1`, the TGI in the experiment with OVCAR-4 ovarian and with SF-539 CNS was over 100 µM in each case.

Consider `C=CCCCCOC1C=CC(OC(C)=O)C(COC(C)=O)O1` (centres undefined), for which the TGI with OVCAR-4 ovarian and with SF-539 CNS was over 100 µM throughout.

`C=C1C(=O)OC2/C=C(\C)CC/C=C(/C)CC(OC(=O)/C(=C/CO)CO)C12` (centres undefined): the TGI with OVCAR-4 ovarian is over 100 µM; in the experiment with SF-539 CNS it was 66.3 µM; in the experiment on SNB-75 CNS, over 100 µM.

As for `CC1=CC(c2ccccc2)OP1(=O)c1ccccc1` (centres undefined), the TGI in the experiment on OVCAR-4 ovarian, with SF-539 CNS and in the experiment on SNB-75 CNS was over 100 µM in each case.

For the compound `O=C(CSc1nc2ccc(I)cc2c(=O)n1Cc1ccccc1)N/N=C/c1ccccc1`, the TGI in the experiment with OVCAR-4 ovarian was over 100 µM; with SF-539 CNS it was over 100 µM; in the experiment with SNB-75 CNS, 28.6 µM.

Consider `O=C(CC(=O)c1ccncc1)c1ccccc1`, for which the TGI in the experiment on OVCAR-4 ovarian, in the experiment on SF-539 CNS and in the experiment on SNB-75 CNS was over 100 µM throughout.

In the case of `O=C1CCc2c3c(c4c([nH]c5ccccc54)c2CC1)C(=O)NC3=O`, the TGI was 13.1 µM in the experiment on OVCAR-4 ovarian, over 100 µM in the experiment with SF-539 CNS and 0.61 µM in the experiment with SNB-75 CNS.

As to `CCN(CC)CCN1c2ccccc2Sc2ccc3ccccc3c21`, the TGI with OVCAR-4 ovarian was 17 µM; in the experiment on SF-539 CNS, 29.7 µM; with SNB-75 CNS it was 19.9 µM.

For `COC1/C=C/C(C)C(OC)CC(O)/C=C/C(C)C(C(C)C(OC)C(C)CCC(=O)C(C)C(C/C=C/N(C)C=O)OC)OC(=O)/C=C/C=C(\C)CC(OC)C(OC)C2=CC(=O)O[C@@H](C(C)C(OC)C1)[C@H]2O` (some centres undefined), the TGI stood at 1.41 µM in the experiment with OVCAR-4 ovarian and 0.0859 µM in the experiment with SNB-75 CNS.

On to `CC(=O)OCC1C(C(C)OC(C)=O)CCC2C1CCC1(C)C(OC(C)=O)CCC21` (centres undefined), for which the figures for the TGI with OVCAR-4 ovarian and in the experiment on SF-539 CNS were 39.6 µM and 32.6 µM, respectively.

Take `CCOC(=O)c1ccc(N=C2SC(=S)N(c3ccc(F)cc3)C2=Nc2ccc(C(=O)OCC)cc2)cc1`: the TGI is 33.4 µM in the experiment on OVCAR-4 ovarian, 42.7 µM with SF-539 CNS and 52.4 µM in the experiment on SNB-75 CNS.

For `NC(=O)c1cnc2sc3ccccc3n2c1=O`, the TGI with OVCAR-4 ovarian, with SF-539 CNS and in the experiment on SNB-75 CNS was over 100 µM throughout.

In the case of `Cc1c2c(c(C)c3c[n+](C)ccc13)Oc1ccccc1O2`, the TGI came out at 28.2 µM in the experiment with OVCAR-4 ovarian, 22.4 µM with SF-539 CNS and 17.5 µM in the experiment with SNB-75 CNS.

Consider `CC1=C(C)C(=O)OC(C(C)(O)C2(O)CCC3(O)C4CC(Cl)C5(O)C(O)C=CC(=O)C5(C)C4CCC32C)C1` (centres undefined), for which the TGI in the experiment with OVCAR-4 ovarian, in the experiment on SF-539 CNS and with SNB-75 CNS was over 100 µM each time.

Take `C=C1c2nc3ccccc3n2C=C(c2ccc(Cl)cc2)N1c1ccc(OCCN2CCOCC2)cc1`: the TGI in the experiment with OVCAR-4 ovarian, with SF-539 CNS and with SNB-75 CNS was over 100 µM throughout.

Turning to `NS(=O)(=O)c1nnc(NC(=O)CCC(=O)O)s1`, the TGI in the experiment with OVCAR-4 ovarian and with SF-539 CNS was over 100 µM each time.

Take `CCN(CC)CCN1C(=O)c2cccc3c(-c4ccc5c(c4)ncn5C4CCCCC4)ccc(c23)C1=O`: the figures for the GI50 in the experiment with OVCAR-4 ovarian, in the experiment with SF-539 CNS and in the experiment on SNB-75 CNS were 1.07 µM, 1.37 µM and 1.05 µM, respectively. Besides, the TGI with OVCAR-4 ovarian was 4.56 µM; in the experiment on SF-539 CNS, 2.75 µM; in the experiment with SNB-75 CNS, 2.4 µM.

`Cc1csc2c(P(=O)(OC(C)C)OC(C)C)c(-c3ccccc3)cn12`: the TGI with OVCAR-4 ovarian came out at 33 µM; with SF-539 CNS, 32.9 µM; in the experiment with SNB-75 CNS, 27.7 µM.

As to `COc1cc2cc3c4c(cc(OC)c(OC)c4c2cc1OC)CCN3C(=O)CCCC(=O)O`, the TGI in the experiment with DLD-1 colon, with DMS 114 small cell lung, in the experiment on DMS 273 small cell lung, with KM20L2 colon, in the experiment on LXFL 529 NSCLC and with M19-MEL melanoma was over 100 µM throughout. The TGI with OVCAR-4 ovarian, in the experiment on SF-539 CNS and in the experiment on SNB-78 CNS was over 100 µM in each case.

In the case of `C1CNCCN2CCCNCCN(C1)CC2`, the TGI with OVCAR-4 ovarian, in the experiment with SF-539 CNS and in the experiment on SNB-75 CNS was over 100 µM in each case.

As for `N#CC12COC3(CCCCC3C1(C#N)C#N)OC2=N` (centres undefined), the TGI in the experiment on SF-539 CNS came out at 27.5 µM; with SNB-75 CNS it was 35.2 µM.

Turning to `O=C(N/N=C(/COc1cccc(Cl)c1)N=Cc1ccncc1)c1ccncc1`, the TGI in the experiment on OVCAR-4 ovarian and with SF-539 CNS was over 100 µM in each case.

On to `N#CS/C(C(Cl)=C(Cl)Cl)=C(/Cl)[N+](=O)[O-]`, for which the TGI amounted to 16.1 µM in the experiment with SF-539 CNS and 52 µM in the experiment with SNB-75 CNS.

Consider `CCCCCCc1nn2c(-c3ccc(C)cc3)nnc2s1`, for which the TGI with OVCAR-4 ovarian, with SF-539 CNS and in the experiment on SNB-75 CNS was over 100 µM throughout.

As for `COC(=O)C12CCC(C(=O)OC)(Cc3c(c4ccccc4n3S(=O)(=O)c3ccccc3)C1)C2=O` (centres undefined), the values for the TGI in the experiment with OVCAR-4 ovarian, in the experiment with SF-539 CNS and in the experiment on SNB-75 CNS were over 100 µM, over 67.3 µM and over 100 µM, respectively.

Turning to `CCCCc1ccc(Nc2nc3c(ncn3C3OC(COC(C)=O)C(OC(C)=O)C3OC(C)=O)c(=O)[nH]2)cc1` (centres undefined), the TGI stood at 52.9 µM with OVCAR-4 ovarian and 57.9 µM in the experiment on SF-539 CNS.

`O=C1C(NS(=O)(=O)c2ccccc2)=C(n2cnc3ccccc32)C(=O)c2ccccc21`: the TGI with OVCAR-4 ovarian was over 100 µM; with SF-539 CNS, over 100 µM; in the experiment with SNB-75 CNS it was 85 µM.

Turning to `CCN(CC)CCNc1ccc([N+](=O)[O-])c2nc3ccccc3c(N)c12`, the TGI in the experiment on OVCAR-4 ovarian came out at 1.48 µM; with SF-539 CNS, 1.84 µM; in the experiment on SNB-75 CNS, 2.39 µM.

`CCCCC1Cc2cc(O)ccc2-c2n1c1cc(O)ccc1[n+]2C` (centres undefined) (tested in a mixture with another compound): the TGI in the experiment with OVCAR-4 ovarian was 97.6 µM; in the experiment on SF-539 CNS, over 100 µM; in the experiment on SNB-75 CNS, over 100 µM.

Turning to `CS(C)(=O)=N/C=C\C(=O)C(Cl)(Cl)Cl`, the TGI with OVCAR-4 ovarian, in the experiment with SF-539 CNS and in the experiment with SNB-75 CNS was over 100 µM in each case.

The values are drawn from PubChem BioAssay (NCI).
